Laboratory results reported in ChEMBL document CHEMBL1649537, “Imcroporin, a new cationic antimicrobial peptide from the venom of the scorpion Isometrus maculates” (2009).
In brackets after ≈: the same amount, converted by molar mass. Activity calls are given as the source filed them. The rule behind the calls is not given here.

How the values were obtained:
Escherichia coli = test: Antimicrobial activity against Escherichia coli AB94012 by microdilution method; assay type: functional
Pseudomonas aeruginosa = test: Antimicrobial activity against Pseudomonas aeruginosa AB92037 by microdilution method; assay type: functional
[1] = tested on: Staphylococcus epidermidis; test: Antimicrobial activity against penicillin-resistant Staphylococcus epidermidis P1389 by microdilution method; assay type: functional
Staphylococcus aureus [2] = test: Antimicrobial activity against Staphylococcus aureus AB94004 by microdilution method; assay type: functional
Staphylococcus aureus [3] = test: Antimicrobial activity against methicillin-resistant Staphylococcus aureus P1386 at 200 ug/ml after 9 hrs by time-kill analysis; assay type: functional, organism-based
Staphylococcus aureus [4] = test: Antimicrobial activity against methicillin-resistant Staphylococcus aureus P1386 by microdilution method; assay type: functional
Staphylococcus aureus [5] = test: Antimicrobial activity against methicillin-resistant Staphylococcus aureus P1374 by microdilution method; assay type: functional
Bacillus thuringiensis = test: Antimicrobial activity against Bacillus thuringiensis AB93066 by microdilution method; assay type: functional
Micrococcus luteus = test: Antimicrobial activity against Micrococcus luteus AB93113 by microdilution method; assay type: functional
[6] = tested on: Staphylococcus epidermidis; test: Antimicrobial activity against penicillin-sensitive Staphylococcus epidermidis P1111 by microdilution method; assay type: functional
Bacillus subtilis = test: Antimicrobial activity against Bacillus subtilis AB91021 by microdilution method; assay type: functional
Staphylococcus = test: Antimicrobial activity against methicillin-resistant coagulase-negative Staphylococcus P1369 by microdilution method; assay type: functional
Staphylococcus aureus [7] = test: Antimicrobial activity against methicillin-resistant Staphylococcus aureus P1386 at 500 ug/ml after 9 hrs by time-kill analysis; assay type: functional, organism-based

SMILES | MIC (Escherichia coli) | MIC (Pseudomonas aeruginosa) | MIC [1] | MIC (Staphylococcus aureus [2]) | Activity (Staphylococcus aureus [3]) | MIC (Staphylococcus aureus [4]) | MIC (Staphylococcus aureus [5]) | MIC (Bacillus thuringiensis) | MIC (Micrococcus luteus) | MIC [6] | MIC (Bacillus subtilis) | MIC (Staphylococcus) | Activity (Staphylococcus aureus [7])
CO/N=C(\C(=O)N[C@@H]1C(=O)N2C(C(=O)O)=C(COC(C)=O)CS[C@H]12)c1csc(N)n1 [CEFOTAXIME] | 3 µg/mL (≈ 6.59 µM) | 12.5 µg/mL (≈ 27.4 µM) | 12.5 µg/mL (≈ 27.4 µM) | 3 µg/mL (≈ 6.59 µM) | inactive | 400 µg/mL (≈ 878 µM) | 400 µg/mL (≈ 878 µM) | 12.5 µg/mL (≈ 27.4 µM) | 3 µg/mL (≈ 6.59 µM) | 8 µg/mL (≈ 17.6 µM) | 50 µg/mL (≈ 110 µM) | 100 µg/mL (≈ 220 µM) | 
CN[C@H](CC(C)C)C(=O)N[C@H]1C(=O)N[C@@H](CC(N)=O)C(=O)N[C@H]2C(=O)N[C@H]3C(=O)N[C@H](C(=O)N[C@H](C(=O)O)c4cc(O)cc(O)c4-c4cc3ccc4O)[C@H](O)c3ccc(c(Cl)c3)Oc3cc2cc(c3O[C@@H]2O[C@H](CO)[C@@H](O)[C@H](O)[C@H]2O[C@H]2C[C@](C)(N)[C@H](O)[C@H](C)O2)Oc2ccc(cc2Cl)[C@H]1O [VANCOMYCIN] |  |  |  |  |  |  |  | 3 µg/mL (≈ 2.07 µM) | 3 µg/mL (≈ 2.07 µM) |  | 3 µg/mL (≈ 2.07 µM) | 4 µg/mL (≈ 2.76 µM) | 
CC1(C)S[C@@H]2[C@H](NC(=O)Cc3ccccc3)C(=O)N2[C@H]1C(=O)O [PENICILLIN G] |  |  | 1000 µg/mL (≈ 2990 µM) | 6 µg/mL (≈ 17.9 µM) |  | 1000 µg/mL (≈ 2990 µM) | 1000 µg/mL (≈ 2990 µM) | 12.5 µg/mL (≈ 37.4 µM) | 25 µg/mL (≈ 74.8 µM) | 4 µg/mL (≈ 12 µM) | 50 µg/mL (≈ 150 µM) | 2000 µg/mL (≈ 5980 µM) | inactive
